IC50 data for 59 compounds are collected here from US12581252B2, “Substituted pyrrolo[3,4-b]pyridines as PI3K-α inhibitors” (Relay Therapeutics, Inc., priority 2020, dated 2026).

In the assay the target is H1047R PIK3CA enzyme (Homo sapiens, UniProt P42336, H1047R). Briefly: ADP-Glo Biochemical PIK3CA Kinase Assay.
H1047R PIK3CA enzyme, sequence (P42336 whole entry H1047R): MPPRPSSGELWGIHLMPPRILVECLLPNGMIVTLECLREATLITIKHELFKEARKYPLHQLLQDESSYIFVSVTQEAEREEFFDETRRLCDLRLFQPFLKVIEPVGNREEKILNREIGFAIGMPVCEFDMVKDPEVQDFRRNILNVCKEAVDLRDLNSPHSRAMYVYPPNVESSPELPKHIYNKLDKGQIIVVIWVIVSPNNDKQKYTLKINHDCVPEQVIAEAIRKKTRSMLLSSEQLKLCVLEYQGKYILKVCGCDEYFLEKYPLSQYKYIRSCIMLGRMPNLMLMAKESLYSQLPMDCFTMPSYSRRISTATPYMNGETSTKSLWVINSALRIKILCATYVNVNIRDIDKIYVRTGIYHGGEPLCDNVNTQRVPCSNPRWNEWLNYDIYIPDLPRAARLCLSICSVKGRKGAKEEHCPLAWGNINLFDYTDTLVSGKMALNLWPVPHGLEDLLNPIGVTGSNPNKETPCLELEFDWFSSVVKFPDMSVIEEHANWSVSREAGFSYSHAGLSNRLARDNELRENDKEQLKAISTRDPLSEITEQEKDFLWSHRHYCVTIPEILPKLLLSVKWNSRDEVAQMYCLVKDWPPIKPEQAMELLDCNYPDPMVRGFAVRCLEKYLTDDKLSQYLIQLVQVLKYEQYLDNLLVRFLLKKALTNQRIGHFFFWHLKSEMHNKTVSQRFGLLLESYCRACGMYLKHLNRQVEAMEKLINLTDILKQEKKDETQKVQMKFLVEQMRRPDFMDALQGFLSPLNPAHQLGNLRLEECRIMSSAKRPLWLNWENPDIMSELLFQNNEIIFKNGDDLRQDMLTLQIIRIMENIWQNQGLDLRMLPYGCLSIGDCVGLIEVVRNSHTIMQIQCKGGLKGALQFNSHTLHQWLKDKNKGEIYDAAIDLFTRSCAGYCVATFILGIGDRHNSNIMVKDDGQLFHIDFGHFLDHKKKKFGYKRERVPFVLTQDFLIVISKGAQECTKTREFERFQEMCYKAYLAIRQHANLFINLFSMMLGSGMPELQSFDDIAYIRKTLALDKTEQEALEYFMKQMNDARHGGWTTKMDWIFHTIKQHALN
H1047R PIK3CA enzyme, sequence (P27986 whole entry partner): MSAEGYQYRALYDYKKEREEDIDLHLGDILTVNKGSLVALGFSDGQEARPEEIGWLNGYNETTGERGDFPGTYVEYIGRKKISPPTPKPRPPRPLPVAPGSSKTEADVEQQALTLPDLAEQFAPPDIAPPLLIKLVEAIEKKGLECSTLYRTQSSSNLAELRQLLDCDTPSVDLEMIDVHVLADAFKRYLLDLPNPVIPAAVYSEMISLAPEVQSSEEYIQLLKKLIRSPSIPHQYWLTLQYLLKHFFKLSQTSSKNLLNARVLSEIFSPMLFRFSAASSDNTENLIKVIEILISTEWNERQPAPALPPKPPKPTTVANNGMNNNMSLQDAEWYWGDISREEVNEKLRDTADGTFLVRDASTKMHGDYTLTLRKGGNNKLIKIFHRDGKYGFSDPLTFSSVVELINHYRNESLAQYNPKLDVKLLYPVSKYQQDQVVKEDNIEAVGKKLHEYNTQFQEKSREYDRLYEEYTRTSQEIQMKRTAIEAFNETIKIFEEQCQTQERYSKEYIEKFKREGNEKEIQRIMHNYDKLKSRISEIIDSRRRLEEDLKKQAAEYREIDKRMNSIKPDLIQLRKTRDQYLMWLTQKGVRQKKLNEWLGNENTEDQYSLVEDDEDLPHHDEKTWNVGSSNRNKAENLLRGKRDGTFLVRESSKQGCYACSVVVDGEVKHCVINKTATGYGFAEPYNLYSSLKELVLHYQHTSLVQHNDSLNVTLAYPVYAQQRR
Consider `O=C(Nc1cc(-c2ccc3ncnn3c2)cc2c1[C@H](c1cc(F)ccc1Cl)NC2=O)c1cc(F)cc2c1NC(=O)C2(F)F` [Compound I-1584], for which the concentration for half-maximal inhibition (IC50) lay within 0.1 to 0.5 µM.

The compound `N#Cc1cc2nccn2cc1-c1cc(NC(=O)c2cc(F)cc(C(F)(F)F)c2)c2c(c1)C(=O)N[C@@H]2c1cc(F)ccc1Cl` [Compound I-1585] returned an IC50 of 0.5 to 1 µM.

The compound `N#Cc1cc2nccn2cc1-c1cc(NC(=O)c2cc(F)cc(C(F)(F)F)c2)c2c(c1)C(=O)N[C@H]2c1cc(F)ccc1Cl` [Compound I-1586] displayed an IC50 not above 0.1 µM. As for `O=C1C=C(c2cc(NC(=O)c3cc(F)cc(C(F)(F)F)c3)c3c(c2)C(=O)NC3c2cc(F)ccc2Cl)CO1` (centres unmarked) [Compound I-1587], the figure is not above 0.1 µM; as for `N#Cc1cnn(Cc2cc(NC(=O)c3cc(F)cc(C(F)(F)F)c3)c3c(c2)C(=O)NC3c2cc(F)ccc2Cl)c1` (centres unmarked) [Compound I-1588], not above 0.1 µM. The result for `[2H]c1nc2ccc(-c3cc(NC(=O)c4cc(F)cc(C(F)(F)F)c4)c4c(c3)C(=O)NC4c3cc(F)ccc3Cl)cn2n1` (centres unmarked) [Compound I-1589] reads not above 0.1 µM.

`O=C1NC(c2cc(F)ccc2Cl)c2c1cccc2-n1ccc2ccccc2c1=O` (centres unmarked) [Compound I-1590] showed an IC50 of 10 to 100 µM.

`O=C(Nc1cc(CS(=O)(=O)c2ccccc2)cc2c1[C@H](c1cc(F)ccc1Cl)NC2=O)c1cc(F)cc(C(F)(F)F)c1` [Compound I-1591] showed a half-inhibitory concentration (IC50) not above 0.1 µM.

For the compound `CN(C)S(=O)(=O)n1cc(-c2cc(NC(=O)c3cc(F)cc(C(F)(F)F)c3)c3c(c2)C(=O)NC3c2cc(F)ccc2Cl)cn1` (centres unmarked) [Compound I-1592], the half-maximal inhibitory concentration (IC50) was not above 0.1 µM. Turning to `O=C(Nc1cc(CS(=O)(=O)c2ccccc2)cc2c1[C@@H](c1cc(F)ccc1Cl)NC2=O)c1cc(F)cc(C(F)(F)F)c1` [Compound I-1593], the IC50 fell in the range of 1 to 10 µM. The result for `N#Cc1cccc(S(=O)(=O)Cc2cc(NC(=O)c3cc(F)cc(C(F)(F)F)c3)c3c(c2)C(=O)N[C@H]3c2cc(F)ccc2Cl)c1` [Compound I-1594] reads not above 0.1 µM; that for `N#Cc1cccc(S(=O)(=O)Cc2cc(NC(=O)c3cc(F)cc(C(F)(F)F)c3)c3c(c2)C(=O)N[C@@H]3c2cc(F)ccc2Cl)c1` [Compound I-1595], 1 to 10 µM. Turning to `CN(C)S(=O)(=O)n1nccc1-c1cc(NC(=O)c2cc(F)cc(C(F)(F)F)c2)c2c(c1)C(=O)N[C@@H]2c1cc(F)ccc1Cl` [Compound I-1598], the IC50 was in the range of 0.5 to 1 µM. As for `CN(C)S(=O)(=O)n1nccc1-c1cc(NC(=O)c2cc(F)cc(C(F)(F)F)c2)c2c(c1)C(=O)N[C@H]2c1cc(F)ccc1Cl` [Compound I-1599], the figure is not above 0.1 µM; as for `COc1cnc2ccc(-c3cc(NC(=O)c4cc(F)cc(C(F)(F)F)c4)c4c(c3)C(=O)NC4c3cc(F)ccc3Cl)cc2c1` (centres unmarked) [Compound I-1602], not above 0.1 µM; as for `N#Cc1cnc2ccc(-c3cc(NC(=O)c4cc(F)cc(C(F)(F)F)c4)c4c(c3)C(=O)NC4c3cc(F)ccc3Cl)cc2c1` (centres unmarked) [Compound I-1603], not above 0.1 µM. As for `CC(C)(O)c1cnc2ccc(-c3cc(NC(=O)c4cc(F)cc(C(F)(F)F)c4)c4c(c3)C(=O)N[C@H]4c3cc(F)ccc3Cl)cc2c1` [Compound I-1604], the figure is not above 0.1 µM; as for `CC(C)(O)c1cnc2ccc(-c3cc(NC(=O)c4cc(F)cc(C(F)(F)F)c4)c4c(c3)C(=O)N[C@@H]4c3cc(F)ccc3Cl)cc2c1` [Compound I-1605], 10 to 100 µM.

`O=C(Nc1cc(-c2ccn3nc(Cl)nc3c2)cc2c1[C@@H](c1cc(F)ccc1Cl)NC2=O)c1cc(F)cc(C(F)(F)F)c1` [Compound I-1606] yielded an IC50 of 0.1 to 0.5 µM. The result for `O=C(Nc1cc(-c2ccc3ncnn3c2)nc2c1C(C1CCCCC1)NC2=O)c1cc(F)cc(C(F)(F)F)c1` (centres unmarked) [Compound I-1607] reads 0.5 to 1 µM; that for `O=C(Nc1cc(-c2cnn(-c3cnccn3)c2)cc2c1C(c1cc(F)ccc1Cl)NC2=O)c1cc(F)cc(C(F)(F)F)c1` (centres unmarked) [Compound I-1608], not above 0.1 µM; that for `O=C(Nc1cc(-c2ccc3ncnn3c2)cc2c1C(c1cc(F)ccc1Cl)NC2=O)c1cc2ccccc2[nH]1` (centres unmarked) [Compound I-1609], 1 to 10 µM. For the compound `O=C(Nc1cc(Br)cc2c1C(c1cc(F)ccc1Cl)NC2=O)c1cc2ccccc2[nH]1` (centres unmarked) [Compound I-1610], the IC50 lay within 1 to 10 µM.

Compound `O=C(Nc1cccc2c1C(C1CCCCC1)NC2=O)c1cc(F)cc(C(F)(F)F)c1` (centres unmarked) [Compound I-1611] returned a half-inhibitory concentration (IC50) of 1 to 10 µM. The compound `O=C(Nc1cc(-c2cnn(-c3ncc(F)cn3)c2)cc2c1C(c1cc(F)ccc1Cl)NC2=O)c1cc(F)cc(C(F)(F)F)c1` (centres unmarked) [Compound I-1616] gave an IC50 not above 0.1 µM. With `O=C(Nc1cc(Br)cc2c1C(c1cc(F)ccc1Cl)NC2=O)c1nc2ccccc2[nH]1` (centres unmarked) [Compound I-1617], the IC50 fell in the range of 1 to 10 µM. The result for `CC(C)(C#N)n1cc(-c2cc(NC(=O)c3cc(F)cc(C(F)(F)F)c3)c3c(c2)C(=O)NC3c2cc(F)ccc2Cl)cn1` (centres unmarked) [Compound I-1618] reads not above 0.1 µM; that for `CC(C)(CC(F)(F)F)C(=O)Nc1cc(Br)cc2c1C(c1cc(F)ccc1Cl)NC2=O` (centres unmarked) [Compound I-1619], 10 to 100 µM; that for `CC(C)(C(=O)Nc1cc(Br)cc2c1C(c1cc(F)ccc1Cl)NC2=O)C(F)(F)F` (centres unmarked) [Compound I-1620], 10 to 100 µM.

Take `O=C1NC(c2cc(F)ccc2Cl)c2c(NC(=O)C3CCCC3C(F)F)cc(Br)cc21` (centres unmarked) [Compound I-1621]: the 50% inhibitory concentration (IC50) fell in the range of 10 to 100 µM.

Compound `O=C1NC(c2cc(F)ccc2Cl)c2c(NC(=O)C3CC4(C3)CC(F)(F)C4)cc(Br)cc21` (centres unmarked) [Compound I-1622] returned a 50% inhibitory concentration (IC50) of 1 to 10 µM. As for `O=C1NC(c2cc(F)ccc2Cl)c2c(NC(=O)C3CCC4C(C3)C4(F)F)cc(Br)cc21` (centres unmarked) [Compound I-1623], the figure is 1 to 10 µM.

Consider `O=C(Nc1cc(-c2ccc3nc(C4CC4)nn3c2)cc2c1C(c1cc(F)ccc1Cl)NC2=O)c1cc(F)cc(C(F)(F)F)c1` (centres unmarked) [Compound I-1624], for which the IC50 was not above 0.1 µM.

`O=C(Nc1cc(Cc2ccc3c(c2)CCNC3=O)cc2c1[C@@H](c1cc(F)ccc1Cl)NC2=O)c1cc(F)cc(C(F)(F)F)c1` [Compound I-1625] came in with an IC50 of 0.5 to 1 µM. `O=C(Nc1cc(Cc2ccc3c(c2)CCNC3=O)cc2c1[C@H](c1cc(F)ccc1Cl)NC2=O)c1cc(F)cc(C(F)(F)F)c1` [Compound I-1626] had a half-inhibitory concentration (IC50) not above 0.1 µM.

`O=C(CC1CCCCC1)Nc1cc(-c2ccc3ncnn3c2)cc2c1C(c1cc(F)ccc1Cl)NC2=O` (centres unmarked) [Compound I-1627] had a concentration for half-maximal inhibition (IC50) of 1 to 10 µM. As for `O=C(CCc1ccccc1)Nc1cc(-c2ccc3ncnn3c2)cc2c1C(c1cc(F)ccc1Cl)NC2=O` (centres unmarked) [Compound I-1628], the figure is 1 to 10 µM; as for `O=C(Nc1cccc2c1C(C1=CCCCC1)NC2=O)c1cc(F)cc(C(F)(F)F)c1` (centres unmarked) [Compound I-1629], 1 to 10 µM; as for `O=C1NC(c2cc(F)ccc2Cl)c2c(NC(=O)C(Cl)c3ccccc3)cc(-c3ccc4ncnn4c3)cc21` (centres unmarked) [Compound I-1630], 1 to 10 µM. The result for `O=C(Nc1cc(-c2ccc3ncnn3c2)cc2c1C(c1cc(F)ccc1Cl)NC2=O)c1nc2ccccc2s1` (centres unmarked) [Compound I-1631] reads 1 to 10 µM; that for `NC1(C(F)(F)F)CC(C(=O)Nc2cc(Br)cc3c2C(c2cc(F)ccc2Cl)NC3=O)C1` (centres unmarked) [Compound I-1632], 10 to 100 µM. Turning to `O=C(CC1CC(F)(F)C1(F)F)Nc1cc(Br)cc2c1C(c1cc(F)ccc1Cl)NC2=O` (centres unmarked) [Compound I-1633], the IC50 fell in the range of 1 to 10 µM.

As to `O=C1NC(c2cc(F)ccc2Cl)c2c(NC(=O)C3CC4(C3)CC4(F)F)cc(Br)cc21` (centres unmarked) [Compound I-1634], the IC50 was 10 to 100 µM.

Compound `CC12CC3CC(F)(C1)CC(C(=O)Nc1cc(Br)cc4c1C(c1cc(F)ccc1Cl)NC4=O)(C3)C2` (centres unmarked) [Compound I-1635] showed a 50% inhibitory concentration (IC50) of 0.1 to 0.5 µM.

Consider `O=C1NC(c2cc(F)ccc2Cl)c2c(NC(=O)C3(c4ccc(Cl)c(Cl)c4)CCCC3)cc(Br)cc21` (centres unmarked) [Compound I-1636], for which the IC50 was 10 to 100 µM.

`O=C1NC(c2cc(F)ccc2Cl)c2c(NC(=O)C3(c4cccc(Cl)c4)CCCC3)cc(Br)cc21` (centres unmarked) [Compound I-1637] had an IC50 of 10 to 100 µM. In turn, `O=C1NC(c2cc(F)ccc2Cl)c2c(NC(=O)C3(c4cccc(F)c4)CCCC3)cc(Br)cc21` (centres unmarked) [Compound I-1638] yielded an IC50 of 10 to 100 µM. Compound `Cc1cccc(C2(C(=O)Nc3cc(Br)cc4c3C(c3cc(F)ccc3Cl)NC4=O)CCCC2)c1` (centres unmarked) [Compound I-1639] came in with a half-inhibitory concentration (IC50) of 10 to 100 µM. The result for `CS(=O)(=O)Cc1cc(NC(=O)c2cc(F)cc(C(F)(F)F)c2)c2c(n1)C(=O)NC2c1cc(F)ccc1Cl` (centres unmarked) [Compound I-1644] reads not above 0.1 µM.

For the compound `N#Cc1cc2ncnn2cc1-c1cc(NC(=O)c2cc(F)cc(C(F)(F)F)c2)c2c(c1)C(=O)N[C@@H]2c1cc(F)ccc1Cl` [Compound I-1645], the IC50 lay within 1 to 10 µM. `O=C(Nc1cc(-c2ccc3ncnn3n2)cc2c1[C@@H](c1cc(F)ccc1Cl)NC2=O)c1cc(F)cc(C(F)(F)F)c1` [Compound I-1649] registered an IC50 of 1 to 10 µM. Compound `O=C(Nc1cc(-c2ccc3ncnn3n2)cc2c1[C@H](c1cc(F)ccc1Cl)NC2=O)c1cc(F)cc(C(F)(F)F)c1` [Compound I-1650] gave an IC50 not above 0.1 µM. The result for `O=C(Nc1cc(-c2ccn3nc(C4CC4)nc3c2)cc2c1C(c1cc(F)ccc1Cl)NC2=O)c1cc(F)cc(C(F)(F)F)c1` (centres unmarked) [Compound I-1651] reads not above 0.1 µM; that for `O=C(Nc1cc(-c2cn3ncnc3cc2F)cc2c1C(c1cc(F)ccc1Cl)NC2=O)c1cc(F)cc(C(F)(F)F)c1` (centres unmarked) [Compound I-1652], not above 0.1 µM. The result for `O=C(Nc1cc(-c2cc(F)c3ncnn3c2)cc2c1C(c1cc(F)ccc1Cl)NC2=O)c1cc(F)cc(C(F)(F)F)c1` (centres unmarked) [Compound I-1653] reads not above 0.1 µM; that for `O=C(Nc1cc(-c2ccc3ncnn3c2)nc2c1C(C1CCCC1)NC2=O)c1cc(F)cc(C(F)(F)F)c1` (centres unmarked) [Compound I-1654], 10 to 100 µM. `O=C(Nc1cc(-c2ccn3ncnc3c2)cc2c1C(c1cc(F)ccc1O)NC2=O)c1cc(F)cc(C(F)(F)F)c1` (centres unmarked) [Compound I-1655] gave a concentration for half-maximal inhibition (IC50) of 1 to 10 µM. As for `Cn1cc(-c2cc(NC(=O)c3cc(F)cc(C(F)(F)F)c3)c3c(c2)C(=O)NC3c2cc(F)ccc2Cl)c(C#N)n1` (centres unmarked) [Compound I-1656], the figure is not above 0.1 µM. The result for `O=C(Nc1cc(-c2cnn(C(F)F)c2)cc2c1C(c1cc(F)ccc1Cl)NC2=O)c1cc(F)cc(C(F)(F)F)c1` (centres unmarked) [Compound I-1657] reads not above 0.1 µM.
